In patent publication US20070037263A1, “Novel acetoacetyl-coa reductase and process for producing optically active alcohol” (priority 2003, published 2007):

Tested on: RAX (acetoacetyl-CoA reductase)
Test: Ethyl 4-chloroacetoacetate reducing activity of RAX in the presence of inhibitors
Type: biochemical
Conditions: for enzyme activity inhibited (in words): summary of Table 1
[1] = inhibitor 1.0 mM, 10 mM ethyl 4-chloroacetoacetate, 0.25 mM NADPH, pH 6.5, 30° C., 3 minutes, activity without inhibitor = 100%

| SMILES | Relative activity [1] [%] | enzyme activity inhibited (in words) | further results |
| --- | --- | --- | --- |
| O=S(=O)([O-])[O-].[Zn+2] [ZnSO4] | 81 |  |  |
| O=C(O)c1cc[c]([Hg][Cl])cc1 [p-Chloromercuribenzoic acid] | 0 | inhibited |  |
| [Cl-].[Cl-].[Co+2] [CoCl2] |  |  | Relative activity (pH 6.5): 108% |
| O=[N+]([O-])[O-].[Ag+] [AgNO3, silver nitrate] |  | inhibited | Relative activity (inhibitor 0.1 mM, 10 mM ethyl 4-chloroacetoacetate, 0.25 mM NADPH, pH 6.5, 30° C., 3 minutes, activity without inhibitor = 100%): 0% |
| O=S(=O)([O-])[O-].[Mg+2] [MgSO4] | 100 |  |  |
| O=C(O)CN(CCN(CC(=O)O)CC(=O)O)CC(=O)O [EDTA] |  |  | Relative activity (pH 6.5): 83% |
| O=S(=O)([O-])[O-].[Cu+2] [CuSO4, copper sulfate] | 0 | inhibited |  |
| O=S(=O)(F)Cc1ccccc1 [Phenylmethylsulfonyl fluoride] | 108 |  |  |
| O=C(O)CI [Iodoacetic acid] |  |  | Relative activity (pH 6.5): 98% |
| CCN1C(=O)C=CC1=O [N-Ethylmaleimide] | 103 |  |  |
| [Cl][Mn][Cl] [MnCl2] | 97 |  |  |
| [Cl][Hg][Cl] [HgCl2, mercury chloride] |  | inhibited | Relative activity (inhibitor 0.01 mM, 10 mM ethyl 4-chloroacetoacetate, 0.25 mM NADPH, pH 6.5, 30° C., 3 minutes, activity without inhibitor = 100%): 0% |
